Data as given in patent publication US20100298141A1, “SUBSTITUTED PYRIDINE N-OXIDE HERBICIDES” (E. I. DU PONT DE NEMOURS AND COMPANY, priority 2007, published 2010).

What was measured:
[1] = test system: corn; test: Test C pre-/postemergence test; assay type: in vivo, Zea mays
Outline: (§1)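 Seeds were planted and treated preemergence with test chemical in a non-phytotoxic solvent mixture containing surfactant. Postemergence applications of the same formulation went onto plants 2 to 18 cm tall (1- to 4-leaf stage). A dash marks no test result.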

[2] = test system: morningglory; test: Test C pre-/postemergence test; assay type: in vivo, Ipomoea coccinea
Outline: as §1

[3] = test system: johnsongrass; test: Test C pre-/postemergence test; assay type: in vivo, Sorghum halepense
Outline: as §1

[4] = test system: lambsquarters; test: Test C pre-/postemergence test; assay type: in vivo, Chenopodium album
Outline: as §1

[5] = test system: downy brome; test: Test C pre-/postemergence test; assay type: in vivo, Bromus tectorum
Outline: as §1

[6] = test system: giant foxtail; test: Test A pre-/postemergence greenhouse test; assay type: in vivo, Setaria faberi; conditions: for Foxtail, Giant plant response rating: 0 to 100 scale; for Plant response rating, Foxtail, Giant: 0 to 100 scale where 0 is no effect and 100 is complete control
Outline: (§2)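 Herbicidal effect is a visual injury score given about ten days post-treatment by comparison with untreated controls. Preemergence plots received a directed spray onto sown loam–sand soil; postemergence plants, at the one- to two-leaf stage and 2–10 cm tall, were sprayed at the same time.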

[7] = test system: morningglory; test: Test A pre-/postemergence greenhouse test; assay type: in vivo, Ipomoea spp.; conditions: for Morningglory plant response rating: 0 to 100 scale; for Plant response rating, Morningglory: 0 to 100 scale where 0 is no effect and 100 is complete control
Outline: as §2

[8] = test system: wheat; test: Test A pre-/postemergence greenhouse test; assay type: in vivo, Triticum aestivum; conditions: for Wheat plant response rating: 0 to 100 scale; for Plant response rating, Wheat: 0 to 100 scale where 0 is no effect and 100 is complete control
Outline: as §2

[9] = test system: cocklebur; test: Test C pre-/postemergence test; assay type: in vivo, Xanthium strumarium
Outline: as §1

[10] = test system: woolly cupgrass; test: Test C pre-/postemergence test; assay type: in vivo, Eriochloa villosa
Outline: as §1

[11] = test system: Goosegrass; test: Test C pre-/postemergence test; assay type: in vivo, Eleusin indica
Outline: as §1

[12] = test system: giant foxtail; test: Test C pre-/postemergence test; assay type: in vivo, Setaria faberii
Outline: as §1

[13] = test system: common ragweed; test: Test C pre-/postemergence test; assay type: in vivo, Ambrosia elation
Outline: as §1

[14] = test system: yellow nutsedge; test: Test C pre-/postemergence test; assay type: in vivo, Cyperus esculentus
Outline: as §1

[15] = test system: soybean; test: Test C pre-/postemergence test; assay type: in vivo, Glycine max
Outline: as §1

[16] = test system: umbrella sedge; test: Test C flooded paddy test; assay type: in vivo, Cyperus difformis; conditions: Flood
Outline: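 Visual injury ratings against untreated controls, taken 13 to 15 days after compound was added to paddy water standing 3 cm above the soil.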

[17] = test system: crabgrass; test: Test A pre-/postemergence greenhouse test; assay type: in vivo, Digitaria sanguinalis; conditions: for Crabgrass, Large plant response rating: 0 to 100 scale; for Plant response rating, Crabgrass, Large: 0 to 100 scale where 0 is no effect and 100 is complete control
Outline: as §2

[18] = 62 g ai/ha, Preemergence, scale 0 to 100
[19] = 125 g ai/ha, preemergence, scale 0 (no effect) to 100 (complete control)
[20] = Preemergence, 31 g ai/ha, scale 0 to 100 (0 no effect, 100 complete control)
[21] = preemergence, 250 g ai/ha, scale 0 (no effect) to 100 (complete control)
[22] = Postemergence, 125 g ai/ha, 0 is no effect, 100 is complete control
[23] = Postemergence, 500 g ai/ha, 0 is no effect, 100 is complete control
[24] = Preemergence, 125 g ai/ha, 0 no effect, 100 complete control
[25] = 31 g ai/ha, scale 0 to 100 (0 no effect, 100 complete control)
[26] = 62 g ai/ha, scale 0 to 100, 0 no effect, 100 complete control, 13 to 15 days
[27] = 125 g ai/ha, scale 0 to 100, 0 no effect, 100 complete control, 13 to 15 days
[28] = 31 g ai/ha, Preemergence, scale 0 to 100
[29] = 62 g ai/ha, preemergence, scale 0 (no effect) to 100 (complete control)
[30] = preemergence, 125 g ai/ha, scale 0 (no effect) to 100 (complete control)

Cn1nc(C(F)(F)F)c(C(Cl)S(=O)(=O)c2cccc[n+]2[O-])c1OCC(F)(F)F (racemic) [Compound 36]
Corn plant response rating [1, 18]: 40 | Corn plant response rating [1, 19]: 60 | Plant response rating, Corn [1, 20]: 0 | Corn plant response rating [1, 21]: 80 | Morningglory plant response rating [2, 18]: 10 | Morningglory plant response rating [2, 19]: 60 | Plant response rating, Morningglory [2, 20]: 0 | Morningglory plant response rating [2, 21]: 75 | Johnsongrass plant response rating [3, 18]: 80 | Johnsongrass plant response rating [3, 19]: 90 | Plant response rating, Johnsongrass [3, 20]: 60 | Johnsongrass plant response rating [3, 21]: 90 | Lambsquarters plant response rating [4, 18]: 60 | Lambsquarters plant response rating [4, 19]: 80 | Plant response rating, Lambsquarters [4, 20]: 0 | Lambsquarters plant response rating [4, 21]: 95 | Bromegrass, Downy plant response rating [5, 18]: 0 | Bromegrass, Downy plant response rating [5, 19]: 30 | Plant response rating, Bromegrass, Downy [5, 20]: 0 | Bromegrass, Downy plant response rating [5, 21]: 50 | Foxtail, Giant plant response rating [6, 22]: 40 | Foxtail, Giant plant response rating [6, 23]: 70 | Foxtail, Giant plant response rating [6, 24]: 100 | Plant response rating, Foxtail, Giant ([6]; Preemergence, 500 g ai/ha): 100 | Morningglory plant response rating [7, 22]: 0 | Morningglory plant response rating [7, 23]: 30 | Morningglory plant response rating [7, 24]: 0 | Plant response rating, Morningglory ([7]; Preemergence, 500 g ai/ha): 80 | Wheat plant response rating [8, 22]: 0 | Wheat plant response rating [8, 23]: 50 | Wheat plant response rating [8, 24]: 20 | Plant response rating, Wheat ([8]; Preemergence, 500 g ai/ha): 60 | Cocklebur plant response rating [9, 18]: 0 | Cocklebur plant response rating [9, 19]: 0 | Plant response rating, Cocklebur [9, 20]: 0 | Cocklebur plant response rating [9, 21]: 0 | Cupgrass, Woolly plant response rating [10, 18]: 55 | Cupgrass, Woolly plant response rating [10, 19]: 100 | Plant response rating, Cupgrass, Woolly [10, 20]: 55 | Cupgrass, Woolly plant response rating [10, 21]: 100 | Goosegrass plant response rating [11, 18]: 100 | Goosegrass plant response rating [11, 19]: 100 | Plant response rating, Goosegrass [11, 20]: 85 | Goosegrass plant response rating [11, 21]: 100 | Foxtail, Giant plant response rating [12, 18]: 50 | Foxtail, Giant plant response rating [12, 19]: 100 | Plant response rating, Foxtail, Giant [12, 20]: 30 | Foxtail, Giant plant response rating [12, 21]: 100 | Ragweed plant response rating [13, 18]: 0 | Ragweed plant response rating [13, 19]: 10 | Plant response rating, Ragweed [13, 20]: 0 | Ragweed plant response rating [13, 21]: 50 | Nutsedge, Yellow plant response rating [14, 18]: 50 | Nutsedge, Yellow plant response rating [14, 19]: 100 | Plant response rating, Nutsedge, Yellow [14, 20]: 0 | Nutsedge, Yellow plant response rating [14, 21]: 100 | Soybean plant response rating [15, 18]: 5 | Soybean plant response rating [15, 19]: 15 | Plant response rating, Soybean [15, 20]: 0 | Soybean plant response rating [15, 21]: 20 | Plant response rating, Sedge, Umbrella [16, 25]: 80 | Plant response rating, Sedge, Umbrella [16, 26]: 85 | Plant response rating, Sedge, Umbrella [16, 27]: 95 | Plant response rating, Sedge, Umbrella ([16]; 250 g ai/ha, scale 0 to 100, 0 no effect, 100 complete control, 13 to 15 days): 100 | Crabgrass, Large plant response rating [17, 22]: 50 | Crabgrass, Large plant response rating [17, 23]: 80 | Crabgrass, Large plant response rating [17, 24]: 70 | Plant response rating, Crabgrass, Large ([17]; Preemergence, 500 g ai/ha): 90

Cc1cc[n+]([O-])c(S(=O)(=O)C(C)c2c(C(F)(F)F)nn(C)c2OC(F)F)c1 (stereo not drawn) [Compound 11]
Corn plant response rating [1, 28]: 0 | Corn plant response rating [1, 29]: 50 | Plant response rating (0 to 100), Corn ([1]; Preemergence, 250 g ai/ha): 98 | Corn plant response rating [1, 30]: 98 | Morningglory plant response rating [2, 28]: 98 | Morningglory plant response rating [2, 29]: 100 | Plant response rating (0 to 100), Morningglory ([2]; Preemergence, 250 g ai/ha): 100 | Morningglory plant response rating [2, 30]: 100 | Johnsongrass plant response rating [3, 28]: 100 | Johnsongrass plant response rating [3, 29]: 100 | Plant response rating (0 to 100), Johnsongrass ([3]; Preemergence, 250 g ai/ha): 100 | Johnsongrass plant response rating [3, 30]: 100 | Lambsquarters plant response rating [4, 28]: 100 | Lambsquarters plant response rating [4, 29]: 100 | Plant response rating (0 to 100), Lambsquarters ([4]; Preemergence, 250 g ai/ha): 100 | Lambsquarters plant response rating [4, 30]: 100 | Bromegrass, Downy plant response rating [5, 28]: 0 | Bromegrass, Downy plant response rating [5, 29]: 10 | Plant response rating (0 to 100), Bromegrass, Downy ([5]; Preemergence, 250 g ai/ha): 60 | Bromegrass, Downy plant response rating [5, 30]: 50 | Foxtail, Giant plant response rating [6, 22]: 70 | Foxtail, Giant plant response rating [6, 23]: 80 | Foxtail, Giant plant response rating [6, 24]: 100 | Plant response rating, Foxtail, Giant ([6]; Preemergence, 500 g ai/ha): 100 | Morningglory plant response rating [7, 22]: 40 | Morningglory plant response rating [7, 23]: 50 | Morningglory plant response rating [7, 24]: 60 | Plant response rating, Morningglory ([7]; Preemergence, 500 g ai/ha): 90 | Wheat plant response rating [8, 22]: 50 | Wheat plant response rating [8, 23]: 60 | Wheat plant response rating [8, 24]: 50 | Plant response rating, Wheat ([8]; Preemergence, 500 g ai/ha): 80 | Cocklebur plant response rating [9, 28]: 0 | Cocklebur plant response rating [9, 29]: 0 | Plant response rating (0 to 100), Cocklebur ([9]; Preemergence, 250 g ai/ha): 0 | Cocklebur plant response rating [9, 30]: 0 | Cupgrass, Woolly plant response rating [10, 28]: 60 | Cupgrass, Woolly plant response rating [10, 29]: 80 | Plant response rating (0 to 100), Cupgrass, Woolly ([10]; Preemergence, 250 g ai/ha): 100 | Cupgrass, Woolly plant response rating [10, 30]: 85 | Goosegrass plant response rating [11, 28]: 100 | Goosegrass plant response rating [11, 29]: 100 | Plant response rating (0 to 100), Goosegrass ([11]; Preemergence, 250 g ai/ha): 100 | Goosegrass plant response rating [11, 30]: 100 | Foxtail, Giant plant response rating [12, 28]: 80 | Foxtail, Giant plant response rating [12, 29]: 98 | Plant response rating (0 to 100), Foxtail, Giant ([12]; Preemergence, 250 g ai/ha): 100 | Ragweed plant response rating [13, 28]: 55 | Ragweed plant response rating [13, 29]: 75 | Plant response rating (0 to 100), Ragweed ([13]; Preemergence, 250 g ai/ha): 100 | Ragweed plant response rating [13, 30]: 95 | Nutsedge, Yellow plant response rating [14, 28]: 70 | Nutsedge, Yellow plant response rating [14, 29]: 98 | Plant response rating (0 to 100), Nutsedge, Yellow ([14]; Preemergence, 250 g ai/ha): 100 | Nutsedge, Yellow plant response rating [14, 30]: 100 | Soybean plant response rating [15, 28]: 0 | Soybean plant response rating [15, 29]: 0 | Plant response rating (0 to 100), Soybean ([15]; Preemergence, 250 g ai/ha): 100 | Soybean plant response rating [15, 30]: 20 | Plant response rating, Sedge, Umbrella [16, 25]: 0 | Plant response rating, Sedge, Umbrella [16, 26]: 90 | Plant response rating, Sedge, Umbrella [16, 27]: 90 | Plant response rating, Sedge, Umbrella ([16]; 250 g ai/ha, scale 0 to 100 (0 no effect, 100 complete control)): 90 | Crabgrass, Large plant response rating [17, 22]: 70 | Crabgrass, Large plant response rating [17, 23]: 80 | Crabgrass, Large plant response rating [17, 24]: 90 | Plant response rating, Crabgrass, Large ([17]; Preemergence, 500 g ai/ha): 100
